Series [1] has as its system coronary artery. As to the kind of experiment: in vivo retention of nanoparticles in porcine coronary artery. The arrangement: species or system pigs. The note with it: after local delivery of U86-loaded nanoparticles; about 45 µg nanoparticles per 1 cm LAD. As for the experimental part:
In addition to the in vivo studies with rats, the nanoparticles were tested on pigs, weighing between about 30-40 lbs. In each subject pig, the elastic lamina of the coronary artery was ruptured by over inflation of a balloon tip catheter. A nanoparticle suspension (2.5 to 10 mg/ml in normal saline) was infused at the location of the injury by a Wolinksy (28 or 96 hole) or D-3 balloon catheter (Sci-Med, Minneapolis, MN) at 1-3 atmosphere pressure over 1 to 5 minutes. After 2-6 hours, the coronary arteries were harvested and quantitated for drug levels to calculate nanoparticle retention. U86 loaded-PLGA nanoparticles (15% w/w) with 5% DMAB surface modification and a particle size between 100-149 nm were suspended in normal saline at a concentration 15 or 30 mg/ml. The nanoparticles (NP) were administered to pigs which were sacrificed at 30 minutes or after one hour.

Series [2] has as its system ADP-induced platelet aggregation. As to the kind of experiment: in vitro platelet aggregometry. The format is cell-based, pig. The note with it: platelet rich plasma at 37° C, effects monitored after 1 minute. As for the experimental part: Using standard in vitro platelet aggregometry techniques, a dose-response curve was first developed with free ciprostene to determined its inhibitory potency against standard ADP-induced platelet aggregation. […] Concentrations of PLGA nanoparticles ranging from 0.3 to 30 µg/ml (actual ciprostene concentration of 0.06 to 6 µg/ml due to 20% drug loading) were added to platelet rich plasma samples heated to 37° C. The platelet inhibitory effects were monitored after 1 minute. The IC50 for the polymer-incorporated ciprostene was 0.59 µg/ml. Non-drug containing PLGA nanoparticles, as controls, had no obvious effects on the aggregation profile of pig platelets to the agonist ADP.

Take `O=c1cc(N2CCOCC2)oc2c(OCc3cccnc3)cccc12` [Sample U86, U-86983]: in series [1], the “net U86 in 1 cm of treated artery” value is listed as “about 7 µg”.
For `CCCCC[C@H](O)/C=C/[C@H]1[C@H](O)C[C@]2(C)C/C(=C\CCCC(=O)O)C[C@H]12` [free ciprostene, ciprostene], the IC50 result in series [2] is recorded as “roughly 0.28 µg/ml”.

Values taken from patent EP0805678B1, “SURFACE-MODIFIED NANOPARTICLES AND METHOD OF MAKING AND USING SAME” (THE BOARD OF REGENTS acting for and on behalf of THE …, priority 1995, dated 1996).
